How the values were obtained:
Test in all cases: Histone peptide microarray
Assay type in all cases: binding, human
KDM5B (1) = conditions: GST-tagged KDM5B (1), arrays performed twice
Procedure, shortened: (§1)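 Recombinant GST-PHD protein at 0.5 μM; 293-member modified histone peptide array; signals averaged from four repeats ± SD.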

ING5 = conditions: GST-tagged ING5, arrays performed twice
Procedure, shortened: as §1

ING4 = conditions: GST-tagged ING4, arrays performed twice
Procedure, shortened: as §1

MORC3 (CW) = conditions: arrays performed twice
Procedure, shortened: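 Purified PHD finger domains fused to GST are screened against 293 synthetic histone peptides bearing one or several post-translational modifications. The protein is used at 0.5 μM, and the signal from four replicate arrays is averaged, with standard deviation given.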

ING1 = conditions: GST-tagged ING1, arrays performed twice
Procedure, shortened: as §1

ING3 = conditions: GST-tagged ING3, arrays performed twice
Procedure, shortened: as §1

MLL5 = conditions: GST-tagged MLL5, arrays performed twice
Procedure, shortened: as §1

TAF3 = conditions: GST-tagged TAF3, arrays performed twice
Procedure, shortened: as §1

CHD5 (PPCC) = conditions: arrays performed twice
Procedure, shortened: as §1

KDM4C (TTP) = conditions: arrays performed twice
Procedure, shortened: as §1

PHF23 = conditions: GST-tagged PHF23, arrays performed twice
Procedure, shortened: as §1

KDM5A (3) = conditions: GST-tagged KDM5A (3), arrays performed twice
Procedure, shortened: as §1

KDM5A (1) = conditions: GST-tagged KDM5A (1), arrays performed twice
Procedure, shortened: as §1

KDM5B (3) = conditions: GST-tagged KDM5B (3), arrays performed twice
Procedure, shortened: as §1

PHF13 = conditions: GST-tagged PHF13, arrays performed twice
Procedure, shortened: as §1

PHF2 = conditions: GST-tagged PHF2, arrays performed twice
Procedure, shortened: as §1

BPTF (PB) = conditions: arrays performed twice
Procedure, shortened: as §1

PHF8 = conditions: GST-tagged PHF8, arrays performed twice
Procedure, shortened: as §1

KDM7A = conditions: GST-tagged KDM7A, arrays performed twice
Procedure, shortened: as §1

CHD4 (PPCC) = conditions: arrays performed twice
Procedure, shortened: as §1

PHRF1 (RP) = conditions: GST-tagged PHRF1 (RP), arrays performed twice
Procedure, shortened: as §1

AIRE (PP) = conditions: GST-tagged AIRE (PP), arrays performed twice
Procedure, shortened: as §1

RAG2 = conditions: GST-tagged RAG2, arrays performed twice
Procedure, shortened: as §1

TRIM66 (PB) = conditions: arrays performed twice
Procedure, shortened: as §1

ING2 = conditions: GST-tagged ING2, arrays performed twice
Procedure, shortened: as §1

DPF2 (PPC2W2) = conditions: arrays performed twice
Procedure, shortened: as §1

BAZ2B = conditions: GST-tagged BAZ2B, arrays performed twice
Procedure, shortened: as §1

PHF21A = conditions: GST-tagged PHF21A, arrays performed twice
Procedure, shortened: as §1

CHD5 (PCC) = conditions: arrays performed twice
Procedure, shortened: as §1

SP140L = conditions: GST-tagged SP140L, arrays performed twice
Procedure, shortened: as §1

DIDO1 = conditions: GST-tagged DIDO1, arrays performed twice
Procedure, shortened: as §1

[1] = sheet "Array Heatmap", total replicate number n = 4

Substance: H4K5ac + K12ac: H4 1-23
- Array Heatmap signal, KDM5B (1) (KDM5B (1); histone peptide array, n of 4): 0.6768
- Array Heatmap signal, ING5 (ING5; histone peptide array, n of 4): 0.3605
- Array Heatmap signal, ING4 (ING4; histone peptide array, n of 4): 0.4639
- Array Heatmap signal, MORC3 (CW) (MORC3 (CW); GST-tagged MORC3 (CW = CW-type Zn-finger), histone peptide array, n of 4): 0.4134
- Array Heatmap signal, ING1 (ING1; histone peptide array, n of 4): 0.5734
- Array Heatmap signal, ING3 (ING3; histone peptide array, n of 4): 0.4957
- Array Heatmap signal, MLL5 (MLL5; histone peptide array, n of 4): 0.6047
- Array Heatmap signal, TAF3 (TAF3; histone peptide array, n of 4): 0.366
- Array Heatmap signal, CHD5 (PPCC) (CHD5 (PPCC); GST-tagged CHD5 (PPCC = Dual PHD + Dual Chromodomain), histone peptide array, n of 4): 0.532
- Array Heatmap signal, KDM4C (TTP) (KDM4C (TTP); GST-tagged KDM4C (TTP = Tandem Tudor domain + PHD), histone peptide array, n of 4): 0.4758
- Array Heatmap signal, PHF23 (PHF23; histone peptide array, n of 4): 0.5561
- Array Heatmap signal, KDM5A (3) (KDM5A (3); histone peptide array, n of 4): 0.5097
- Array Heatmap signal, KDM5A (1) (KDM5A (1); histone peptide array, n of 4): 0.4472
- Array Heatmap signal, KDM5B (3) (KDM5B (3); histone peptide array, n of 4): 0.4813
- Array Heatmap signal, PHF13 (PHF13; histone peptide array, n of 4): 0.6317
- Array Heatmap signal, PHF2 (PHF2; histone peptide array, n of 4): 0.5746
- Array Heatmap signal, BPTF (PB) (BPTF (PB); GST-tagged BPTF (PB = PHD + Bromodomain), histone peptide array, n of 4): 0.414
- Array Heatmap signal, PHF8 (PHF8; histone peptide array, n of 4): 0.3854
- Array Heatmap signal, KDM7A (KDM7A; histone peptide array, n of 4): 0.3306
- Array Heatmap signal, CHD4 (PPCC) (CHD4 (PPCC); GST-tagged CHD4 (PPCC = Dual PHD + Dual Chromodomain), histone peptide array, n of 4): 0.585
- Array Heatmap signal, PHRF1 (RP) (PHRF1 (RP); histone peptide array, n of 4): 0.4375
- Array Heatmap signal, AIRE (PP) (AIRE (PP); histone peptide array, n of 4): 0.3771
- Array Heatmap signal, RAG2 (RAG2; histone peptide array, n of 4): 0.3116
- Array Heatmap signal, TRIM66 (PB) (TRIM66 (PB); GST-tagged TRIM66 (PB = PHD + Bromodomain), histone peptide array, n of 4): 0.6577
- Array Heatmap signal, ING2 (ING2; histone peptide array, n of 4): 0.648
- Array Heatmap signal, DPF2 (PPC2W2) (DPF2 (PPC2W2); GST-tagged DPF2 (PPC2W2 = Dual PHD + C2W2-type Zn-finger), histone peptide array, n of 4): 0.7316
- Array Heatmap signal, BAZ2B (BAZ2B; histone peptide array, n of 4): 0.4409
- Array Heatmap signal, PHF21A (PHF21A; histone peptide array, n of 4): 0.4826
- Array Heatmap signal, CHD5 (PCC) (CHD5 (PCC); GST-tagged CHD5 (PCC = PHD + Dual Chromodomain), histone peptide array, n of 4): 0.8553
- Array Heatmap signal, SP140L (SP140L; histone peptide array, n of 4): 0.3768
- Array Heatmap signal, DIDO1 (DIDO1; histone peptide array, n of 4): 0.8034

Substance: H3.3K27me3: H3.3 15-34 [Peptide H3.3K27me3]
- Array Heatmap signal, KDM5B (1) (KDM5B (1); [1]): 0.6871
- Array Heatmap signal, ING5 (ING5; [1]): 0.4224
- Array Heatmap signal, ING4 (ING4; [1]): 0.5176
- Array Heatmap signal, MORC3 (CW) (MORC3 (CW); sheet "Array Heatmap", GST-tagged MORC3 (CW), total replicate number n = 4): 0.4234
- Array Heatmap signal, ING1 (ING1; [1]): 0.5843
- Array Heatmap signal, ING3 (ING3; [1]): 0.5349
- Array Heatmap signal, MLL5 (MLL5; [1]): 0.5722
- Array Heatmap signal, TAF3 (TAF3; [1]): 0.2913
- Array Heatmap signal, CHD5 (PPCC) (CHD5 (PPCC); sheet "Array Heatmap", GST-tagged CHD5 (PPCC), total replicate number n = 4): 0.6383
- Array Heatmap signal, KDM4C (TTP) (KDM4C (TTP); sheet "Array Heatmap", GST-tagged KDM4C (TTP), total replicate number n = 4): 0.5632
- Array Heatmap signal, PHF23 (PHF23; [1]): 0.6091
- Array Heatmap signal, KDM5A (3) (KDM5A (3); [1]): 0.4949
- Array Heatmap signal, KDM5A (1) (KDM5A (1); [1]): 0.5261
- Array Heatmap signal, KDM5B (3) (KDM5B (3); [1]): 0.5372
- Array Heatmap signal, PHF13 (PHF13; [1]): 0.7006
- Array Heatmap signal, PHF2 (PHF2; [1]): 0.5285
- Array Heatmap signal, BPTF (PB) (BPTF (PB); sheet "Array Heatmap", GST-tagged BPTF (PB), total replicate number n = 4): 0.4048
- Array Heatmap signal, PHF8 (PHF8; [1]): 0.4126
- Array Heatmap signal, KDM7A (KDM7A; [1]): 0.3849
- Array Heatmap signal, CHD4 (PPCC) (CHD4 (PPCC); sheet "Array Heatmap", GST-tagged CHD4 (PPCC), total replicate number n = 4): 0.5987
- Array Heatmap signal, PHRF1 (RP) (PHRF1 (RP); [1]): 0.5177
- Array Heatmap signal, AIRE (PP) (AIRE (PP); [1]): 0.536
- Array Heatmap signal, RAG2 (RAG2; [1]): 0.2705
- Array Heatmap signal, TRIM66 (PB) (TRIM66 (PB); sheet "Array Heatmap", GST-tagged TRIM66 (PB), total replicate number n = 4): 0.6617
- Array Heatmap signal, ING2 (ING2; [1]): 0.6109
- Array Heatmap signal, DPF2 (PPC2W2) (DPF2 (PPC2W2); sheet "Array Heatmap", GST-tagged DPF2 (PPC2W2), total replicate number n = 4): 0.7311
- Array Heatmap signal, BAZ2B (BAZ2B; [1]): 0.5914
- Array Heatmap signal, PHF21A (PHF21A; [1]): 0.5192
- Array Heatmap signal, CHD5 (PCC) (CHD5 (PCC); sheet "Array Heatmap", GST-tagged CHD5 (PCC), total replicate number n = 4): 0.8198
- Array Heatmap signal, SP140L (SP140L; [1]): 0.3923
- Array Heatmap signal, DIDO1 (DIDO1; [1]): 0.7249
